This is an account of results in patent US8188134B2, “Thiophene-carboxamides useful as inhibitors of protein kinases” (Vertex Pharmaceuticals Incorporated, priority 2006, dated 2012).

The test addresses T1, Plk1 (Homo sapiens, UniProt P53350).
T1 construct: in the presence of 15 nM Plk1 (A20-K338)
In words: Plk1 inhibition assay (radioactive-phosphate incorporation). In kind it is biochemical. The conditions noted are these: Ki(app). The protocol:
The compounds of the present invention are evaluated as inhibitors of human PLK kinase using the following assays.
Compounds were screened for their ability to inhibit Plk1 using a radioactive-phosphate incorporation assay. Assays were carried out in a mixture of 25 mM HEPES (pH 7.5), 10 mM MgCl2, and 1 mM DTT. Final substrate concentrations were 50 μM [γ-33P]ATP (136 mCi 33P ATP/mmol ATP, Amersham Pharmacia Biotech/Sigma Chemicals) and 10 μM peptide (SAM68 protein Δ332-443). Assays were carried out at 25° C. in the presence of 15 nM Plk1 (A20-K338). An assay stock buffer solution was prepared containing all of the reagents listed above, with the exception of ATP and the test compound of interest. 30 μL of the stock solution was placed in a 96 well plate followed by addition of 2 μL of DMSO stock containing serial dilutions of the test compound (typically starting from a final concentration of 10 μM with 2-fold serial dilutions) in duplicate (final DMSO concentration 5%). The plate was pre-incubated for 10 minutes at 25° C. and the reaction initiated by addition of 8 μL [γ-33P]ATP (final concentration 50 μM). […]
After removing mean background values for all of the data points, Ki(app) data were calculated from non-linear regression analysis of the initial rate data using the Prism software package (GraphPad Prism version 3.0cx for Macintosh, GraphPad Software, San Diego Calif., USA). […]

T1 sequence (P53350 20-338): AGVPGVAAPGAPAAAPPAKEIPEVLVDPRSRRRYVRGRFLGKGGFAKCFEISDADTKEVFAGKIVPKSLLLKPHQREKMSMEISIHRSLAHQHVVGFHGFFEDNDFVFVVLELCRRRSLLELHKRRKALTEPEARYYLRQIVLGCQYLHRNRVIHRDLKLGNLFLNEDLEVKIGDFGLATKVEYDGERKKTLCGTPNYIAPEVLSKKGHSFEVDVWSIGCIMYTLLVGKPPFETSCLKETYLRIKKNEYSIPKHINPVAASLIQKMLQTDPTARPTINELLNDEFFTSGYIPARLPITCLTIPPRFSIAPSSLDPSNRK

Regarding `CC(Oc1cc(-n2ccnc2)sc1C(N)=O)c1ccccc1Cl` (centres unmarked) [I-1, 3-[1-(2-Chloro-phenyl)-ethoxy]-5-imidazol-1-yl-thiophene-2-carboxylic acid amide], for the setting “the text does not say which of the two Plk1 protocols was used”, the Ki lay in the range of 10 to 100 nM.

`CC(Oc1cc(-c2cc(N)n[nH]2)sc1C(N)=O)c1ccccc1Cl` (centres unmarked) [I-2, 5-(5-Amino-2H-pyrazol-3-yl)-3-[1-(2-chloro-phenyl)-ethoxy]-thiophene-2-carboxylic acid amide]: for the setting “lower bound in nM, upper bound in μM, protocol not specified”, the Ki fell in the range of 100 to 4000 nM.
